# Assay results reported in the supplement of paper PMC10307832.
# Assays:
# Assay in all cases: relative viability (nuclei count vs DMSO), 5 days (fraction); higher = more cells survive
# [1] = compound: C1CSC2=C(C(=O)N1)SC3=C2C=C(C=C3)O [kb NB 142-70] + Nc1ncn([C@H]2C[C@H](O)[C@@H](CO)O2)c(=O)n1 [Decitabine] (partner 2 µM)
# In short: (§1)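 Relative viability divides the nuclei count in treated wells by that in vehicle wells. Lung cancer cell lines were seeded in 1536-well plates, dosed by pin tool the next day, and fixed and stained after 5 days in one step with final 0.05% Triton X-100, 1% formaldehyde and 1 ug/ml Hoechst. Dosing was a single drug or a fixed anchor-drug dose plus five library-drug doses (not always all listed) in √10 steps, and values are medians of duplicate plates imaged at 4×.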
# kb NB 142-70 + Alpelisib = compound: C1CSC2=C(C(=O)N1)SC3=C2C=C(C=C3)O [kb NB 142-70] + Cc1nc(NC(=O)N2CCC[C@H]2C(N)=O)sc1-c1ccnc(C(C)(C)C(F)(F)F)c1 [Alpelisib] (partner 2 µM)
# In short: as §1
# [2] = compound: NCC(=O)Nc1ccc(-n2nc(C(F)(F)F)cc2-c2ccc3c(ccc4ccccc43)c2)cc1 + O=C(CCCCCCC(=O)Nc1ccccc1)NO [Vorinostat] (partner 1 µM)
# In short: as §1
# [3] = compound: NCC(=O)Nc1ccc(-n2nc(C(F)(F)F)cc2-c2ccc3c(ccc4ccccc43)c2)cc1 + CS(=O)(=O)CCNCc1ccc(-c2ccc3ncnc(Nc4ccc(OCc5cccc(F)c5)c(Cl)c4)c3c2)o1 [Lapatinib] (partner 2 µM)
# In short: as §1
# [4] = compound: C1CSC2=C(C(=O)N1)SC3=C2C=C(C=C3)O [kb NB 142-70] + N=C(N)NC(=N)NCCc1ccccc1 [Phenformin] (partner 250 µM)
# In short: as §1
Cell Line,relative viability ([1]; first compound 0.1 µM),relative viability ([1]; first compound 1 µM),relative viability ([1]; first compound 3.162 µM),relative viability (kb NB 142-70 + Alpelisib; first compound 0.1 µM),relative viability (kb NB 142-70 + Alpelisib; first compound 1 µM),relative viability (kb NB 142-70 + Alpelisib; first compound 3.162 µM),relative viability ([2]; first compound 0.02 µM),relative viability ([2]; first compound 0.06325 µM),relative viability ([2]; first compound 0.2 µM),relative viability ([2]; first compound 0.6325 µM),relative viability ([2]; first compound 2 µM),relative viability ([3]; first compound 0.02 µM),relative viability ([3]; first compound 0.06325 µM),relative viability ([3]; first compound 0.2 µM),relative viability ([3]; first compound 0.6325 µM),relative viability ([3]; first compound 2 µM),relative viability ([4]; first compound 0.1 µM),relative viability ([4]; first compound 1 µM),relative viability ([4]; first compound 3.162 µM)
NCI-H838,0.431,0.454,0.427,1.02,1.06,0.91,0.772,0.708,0.857,0.681,0.728,0.934,0.893,0.974,0.778,0.576,0.561,0.575,0.571
NCI-H1355,0.39,0.355,0.342,0.924,0.86,0.822,0.636,0.709,0.676,0.655,0.653,1,1.05,1.08,0.951,1.05,0.485,0.451,0.453
NCI-H1395,0.635,0.726,0.609,1.29,1.15,0.66,0.761,0.82,0.686,0.646,0.924,1.15,1.02,0.928,1.08,1.04,0.45,0.484,0.434
NCI-H1437,0.578,0.55,0.536,1.01,0.999,0.875,0.834,0.866,0.887,0.802,0.754,0.768,0.76,0.751,0.84,0.78,0.308,0.292,0.262
NCI-H1651,0.61,0.607,0.491,0.938,0.934,0.364,0.593,0.442,0.543,0.612,0.554,0.715,0.758,0.782,0.909,0.85,0.327,0.321,0.205
NCI-H1666,0.76,0.712,0.603,0.805,1.01,0.632,1.03,1.07,1.13,0.938,0.944,0.59,0.61,0.588,0.744,0.604,0.558,0.526,0.467
NCI-H1734,0.525,0.46,0.348,0.659,0.607,0.46,0.773,0.848,0.827,0.773,0.817,1.05,1.01,1.15,1.03,0.853,0.371,0.346,0.267
NCI-H1755,0.7,0.729,0.727,0.968,0.915,0.929,0.758,0.824,0.788,0.768,0.833,1.01,1,1.07,1.02,1.06,0.586,0.587,0.638
